In patent publication US20140051756A1, “METHOD FOR PREVENTING OR TREATING ARRHYTHMIA, METHOD FOR PREVENTING OR TREATING ATRIAL FIBRILLATION, MODEL OF SUSTAINED ATRIAL FIBRILLATION, METHOD FOR PRODUCING THE MODEL, AND METHOD FOR SCREENING FOR ATRIAL FIBRILLATION INHIBITOR” (Toho University, priority 2011, published 2014):
Read-outs that look alike come from different tables or passages of the source.

Experiments:
[1] = system: model of sustained atrial fibrillation; assay: Test Example 1: screening for atrial fibrillation inhibitor, intravenous injection, Holter electrocardiogram; conditions: for Frequency of Atrial Fibrillation Termination: X/Y individuals terminated
[2] = system: normal beagle dogs; conditions: dog, in vivo, iv
[3] = system: model of sustained atrial fibrillation; assay: Test Example 2: study of dose and combined use of oseltamivir, with 24 hour follow-up for recurrence; assay type: in vivo, beagle dog; conditions: for Frequency of Atrial Fibrillation Recurrence: 24 hours follow-up after termination
From the text: Oseltamivir (oseltamivir phosphate, trade name: TAMIFLU (registered trademark), product of CHUGAI PHARMACEUTICAL CO., LTD.; phosphate of the compound represented by Structural Formula (I))) and/or pilsicainide (pilsicainide hydrochloride, trade name: […] (registered trademark), product of DAIICHI SANKYO COMPANY, LIMITED), which had been diluted with saline to doses as described in Table 2-1, was intravenously injected to the model of sustained atrial fibrillation produced in Production Example 1 in doses described in Table 2-1 for 10 min.
During from before the administration to after the administration, the electrocardiogram was monitored in the same manner as in Test Example 1, and the frequency of atrial fibrillation termination and the defibrillation rate were determined in the same manner as in Test Example 1. For individuals in which atrial fibrillation was terminated, an electrocardiographic follow-up was performed for 24 hours after atrial fibrillation was terminated to thereby determine whether atrial fibrillation recurred.

[4] = system: normal beagle dogs; assay: Test Example 3: study of effect on QT prolongation (ECG, MAP90, ERP)
[5] = 3 mg/kg intravenous over 10 min
[6] = 30 mg/kg intravenous over 10 min
[7] = high dose 30 mg/kg intravenous over 10 min
[8] = low dose 3 mg/kg intravenous over 10 min

CCN(CC)CCCN(c1ccccc1)C1Cc2ccccc2C1 [Aprindine, aprindine]
Defibrillation Rate [1, 5]: 0%
Frequency of Atrial Fibrillation Termination [1, 5]: 0/6

c1ccc(C2(c3ccccc3)CC2C2=NCCN2)cc1 (centres unmarked) [Cibenzoline, cibenzoline]
Defibrillation Rate [1, 5]: 33.3%
Frequency of Atrial Fibrillation Termination [1, 5]: 2/6

CC(C)N(CCC(C(N)=O)(c1ccccc1)c1ccccn1)C(C)C (centres unmarked) [Disopyramide, disopyramide]
Frequency of Atrial Fibrillation Termination [1, 5]: 1/6
death of the model animal after administration ([1]; 3 mg/kg intravenous, 1 individual, FIG. 6A): confirmed to be dead
termination of atrial fibrillation on electrocardiogram ([1]; 3 mg/kg intravenous, 1 individual, FIGS. 6A to 6C): could not terminate atrial fibrillation
MAP90 (CL300) versus MAP90 (CL400), MAP prolongation pattern [2]: dangerous MAP prolongation pattern
prolongation of QT and QTc, QT prolongation pattern [2]: longer prolongations of QT and QTc than that of the oseltamivir-administered group, and a dangerous QT prolongation pattern

CCOC(=O)C1=C[C@@H](OC(CC)CC)[C@H](NC(C)=O)[C@@H](N)C1 [Oseltamivir, oseltamivir]
Defibrillation Rate [1, 6]: 91.7%
adverse effect on the ventricle [1, 6]: does not adversely affect the ventricle
Frequency of Atrial Fibrillation Termination [1, 6]: 11/12
Defibrillation Rate ([1]; 30 mg/kg intravenous over 10 min, listed as oseltamivir): very high
Defibrillation Rate [3, 7]: 100%
Frequency of Atrial Fibrillation Termination [3, 7]: 5/5
Frequency of Atrial Fibrillation Recurrence [3, 7]: 2/5
Defibrillation Rate [3, 8]: 25%
Frequency of Atrial Fibrillation Termination [3, 8]: 1/4
Frequency of Atrial Fibrillation Recurrence [3, 8]: 0/1
prolongation of QT and QTc, QT prolongation pattern ([4]; anesthetized normal dogs, intravenous doses increased stepwise every 30 min (Table 3), FIGS. 7 to 10): short prolongations of QT and QTc and a safe QT prolongation pattern
prolongation of P wave width on the electrocardiogram (index of inhibitory effect on Na channels in the atrial muscle) ([4]; sinus rhythm, 0.3, 3, 30 mg/kg intravenous stepwise, FIG. 7): longer prolongation of P wave
MAP90 (CL300) versus MAP90 (CL400), MAP prolongation pattern ([4]; ventricular pacing at cycle length 300 msec (200 bpm) and 400 msec (150 bpm), stepwise intravenous doses (Table 3)): safe MAP prolongation pattern

Cc1cccc(C)c1NC(=O)CC12CCCN1CCC2 [Pilsicainide, pilsicainide]
Defibrillation Rate [1, 5]: 33.3%
Frequency of Atrial Fibrillation Termination [1, 5]: 2/6
MAP90 (CL300) versus MAP90 (CL400), MAP prolongation pattern [2]: dangerous MAP prolongation pattern
prolongation of QT and QTc, QT prolongation pattern [2]: longer prolongations of QT and QTc than that of the oseltamivir-administered group, and a dangerous QT prolongation pattern
